Laboratory results published in patent publication US8431593B2, “Heteroaryl amide derivatives” (H. Lundbeck A/S, priority 2006, dated 2013).

Molecular target: T1, P2X7 receptor (Homo sapiens, UniProt Q99572)
T1 construct: host or cells: SH-SY5Y
T1 sequence (Q99572 1-595): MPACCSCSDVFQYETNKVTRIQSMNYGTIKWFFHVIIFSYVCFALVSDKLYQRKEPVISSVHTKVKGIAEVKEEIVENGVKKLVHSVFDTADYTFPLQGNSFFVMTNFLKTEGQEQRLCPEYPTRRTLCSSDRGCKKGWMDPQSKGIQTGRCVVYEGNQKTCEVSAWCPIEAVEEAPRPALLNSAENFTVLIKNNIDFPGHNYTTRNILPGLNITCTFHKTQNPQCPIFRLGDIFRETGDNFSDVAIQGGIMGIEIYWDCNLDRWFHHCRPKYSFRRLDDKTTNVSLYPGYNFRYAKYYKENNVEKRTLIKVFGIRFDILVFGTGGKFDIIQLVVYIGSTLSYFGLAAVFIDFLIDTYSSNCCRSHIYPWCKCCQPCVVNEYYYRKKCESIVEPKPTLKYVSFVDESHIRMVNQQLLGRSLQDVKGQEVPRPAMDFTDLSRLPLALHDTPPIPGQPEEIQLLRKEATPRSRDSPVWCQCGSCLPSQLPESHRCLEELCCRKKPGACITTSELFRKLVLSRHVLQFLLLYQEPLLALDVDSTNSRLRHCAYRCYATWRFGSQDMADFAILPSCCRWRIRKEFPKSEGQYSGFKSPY
Assay: P2X7 calcium mobilization assay, high throughput, antagonist activity (Example 4A)
Format: cell-based
Conditions: 50% decrease in the fluorescence response of cells exposed to 80 μM 2′(3′)-O-(4-benzoyl-benzoyl)adenosine 5′-triphosphate; Example 4A; read-out: IC50
In short: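 100,000 cells/well, plated day -1. Dye 1 h → rinse → compound 1 h, RT → FLIPR^TETRA Ca2+ mobilization. Max RFU minus mean negative control (no agonist); mean agonist-well max as positive control.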

Row | Compound | IC50 [µM]
1 | CC(C)[C@@H]1CNCCN1C(=O)c1cn2c(C(=O)NCC34CC5CC(CC(C5)C3)C4)cccc2n1 [Compound 613, N-(adamantan-1-ylmethyl)-2-{[(2R)-2-isopropylpiperazin-1-yl]carbonyl}imidazo[1,2-a]pyridine-5-carboxamido] | < 2
2 | CC1(C)[C@H]2CC[C@@H](CNC(=O)c3cccc4nc(C(=O)N5CCSCC5)cn34)[C@@H]1C2 [Compound 462, N-{[(1S,2R,5S)-6,6-dimethylbicyclo[3.1.1]hept-2-yl]methyl}-2-(thiomorpholin-4-ylcarbonyl)imidazo[1,2-a]pyridine-5-carboxamide] | < 2
3 | CNC1CCN(C(=O)c2cn3c(C(=O)NCC45CC6CC(CC(C6)C4)C5)cccc3n2)C1 (centres unmarked) [Compound 611, N-(adamantan-1-ylmethyl)-2-{[3-(methylamino)pyrrolidin-1-yl]carbonyl}imidazo[1,2-a]pyridine-5-carboxamide] | < 2
4 | CCN(CC)C(=O)c1cn2c(C(=O)NC[C@@H]3CC[C@H]4C[C@@H]3C4(C)C)cccc2n1 [Compound 477, 5-N-{[(1S,2R,5S)-6,6-dimethylbicyclo[3.1.1]hept-2-yl]methyl}-2-N,2-N-diethylimidazo[1,2-a]pyridine-2,5-dicarboxamide] | < 2
5 | O=C(O)CCNC(=O)c1cn2c(C(=O)NCC34CC5CC(CC(C5)C3)C4)cccc2n1 [Compound 544, N-({5-[(adamantan-1-ylmethyl)carbamoyl)imidazo[1,2-a]pyridin-2-yl}carbonyl)-beta-alanine] | < 2
6 | CCN(Cc1cn2c(C(=O)NCC34CC5CC(CC(C5)C3)C4)cccc2n1)C(=O)c1nnc[nH]1 [Compound 552, N-(adamantan-1-ylmethyl)-2-{[ethyl(4H-1,2,4-triazol-3-ylcarbonyl)amino]methyl}imidazo[1,2-a]pyridine-5-carboxamide] | < 2
7 | COC[C@@H]1CCCN1C(=O)c1cn2c(C(=O)NC[C@@H]3CC[C@H]4C[C@@H]3C4(C)C)cccc2n1 [Compound 473, N-{[(1S,2R,5S)-6,6-dimethylbicyclo[3.1.1]hept-2-yl]methyl}-2-{[(2S)-2-(methoxymethyl)pyrrolidin-1-yl]carbonyl}imidazo[1,2-a]pyridine-5-carboxamide] | < 2

Same assay, conditions: 50% decrease in the fluorescence response of cells exposed to 80 μM of 2′(3′)-O-(4-benzoyl-benzoyl)adenosine 5′-triphosphate; Example 4A; read-out: IC50

Row | Compound | IC50 [µM]
8 | O=C(NCC12CC3CC(CC(C3)C1)C2)c1cccc2nc(C(Cc3ccccn3)C(=O)O)cn12 (centres unmarked) [Compound 732, 2-{5-[(adamantan-1-ylmethyl)carbamoyl]imidazo[1,2-a]pyridin-2-yl}-3-pyridin-2-ylpropanoic acid] | < 2
9 | N[C@@H]1CCN(Cc2cn3c(C(=O)NCC(CC4CCC4)c4ccccc4)cccc3n2)C1 (some centres unmarked) [Compound 783, 2-[(3-aminopyrrolidin-1-yl)methyl]-N-(3-cyclobutyl-2-phenylpropyl) imidazo [1,2-a]pyridine-5-carboxamide] | < 2
10 | COCc1ccc(CN(C)C(=O)c2cn3c(C(=O)NCC45CC6CC(CC(C6)C4)C5)cccc3n2)nc1 [Compound 710, 5-N-(adamantan-1-ylmethyl)-2-N-{[5-(methoxymethyl)pyridin-2-yl]methyl}-2-N-methylimidazo[1,2-a]pyridine-2,5-dicarboxamide] | < 2
11 | O=C(NCC12CC3CC(CC(C3)C1)C2)c1cccc2nc(C(=O)N3CCN([C@@H]4CCC[C@H]4O)CC3)cn12 [Compound 700, N-(adamantan-1-ylmethyl)-2-({4-[(1R,2R)-2-hydroxycyclopentyl]piperazin-1-yl}carbonyl)imidazo[1,2-a]pyridine-5-carboxamide] | < 2
12 | O=C(NCCN1CCCCC1)c1cn2c(C(=O)NCC34CC5CC(CC(C5)C3)C4)cccc2n1 [Compound 650, 5-N-(adamantan-1-ylmethyl)-2-N-(2-piperidin-1-ylethyl)imidazo[1,2-a]pyridine-2,5-dicarboxamide] | < 2
13 | CC(COS(C)(=O)=O)c1cn2c(C(=O)NCC34CC5CC(CC(C5)C3)C4)cccc2n1 (centres unmarked) [Compound 741, 2-{5-[(adamantan-1-ylmethyl)carbamoyl]imidazo[1,2-a]pyridin-2-yl}propyl methanesulfonate] | < 2
14 | O=C(Nc1nnn[nH]1)c1cn2c(C(=O)NCC34CC5CC(CC(C5)C3)C4)cccc2n1 [Compound 815, 5-N-(adamantan-1-ylmethyl)-2-N-1H-tetrazol-5-ylmidazo[1,2-a] pyridine-2,5-dicarboxamide] | < 2

Same assay, conditions: 50% decrease in the fluorescence response of cells exposed to 80 μM of 2′(3′)-O-(4-benzoyl-benzoyl)adenosine 5′-triphosphate; determined as in Example 4A; read-out: IC50

Row | Compound | IC50 [µM]
15 | CC(C)CC(CNC(=O)c1cccc2nc(CN3CC[C@@H](O)C3)cn12)c1ccc(Cl)cc1 (stereo partly drawn) [Compound 942, N-[2-(4-chlorophenyl)-4-methylpentyl]-2-{[(3R)-3-hydroxypyrrolidin-1-yl]methyl} imidazo[1,2-a]pyridine-5-carboxamide] | < 2

Same assay, conditions: SH-SY5Y cells; 50% decrease in fluorescence response to 80 μM BzATP; read-out: IC50

Row | Compound | IC50 [µM]
16 | CCN(C)C(=O)Cc1cn2c(C(=O)NCC34CC5CC(CC(C5)C3)C4)cccc2n1 [Compound 168, N-(adamantan-1-ylmethyl)-2-{2-[ethyl(methyl)amino]-2-oxoethyl}imidazo[1,2-a]pyridine-5-carboxamide] | < 2
17 | CC1(C)CCCN(C(=O)Cc2cn3c(C(=O)NCC45CC6CC(CC(C6)C4)C5)cccc3n2)C1 [Compound 185, N-(adamantan-1-ylmethyl)-2-[2-(3,3-dimethylpiperidin-1-yl)-2-oxoethyl]imidazo[1,2-a]pyridine-5-carboxamide] | < 2
18 | CCC(=O)NC1CCN(C(=O)Cc2cn3c(C(=O)NCC45CC6CC(CC(C6)C4)C5)cccc3n2)CC1 [Compound 183, N-(adamantan-1-ylmethyl)-2-{2-oxo-2-[4-(propionylamino)piperidin-1-yl]ethyl}imidazo[1,2-a]pyridine-5-carboxamide] | < 2
19 | CCS(=O)(=O)NCCc1cn2c(C(=O)NCC34CC5CC(CC(C5)C3)C4)cccc2n1 [Compound 194, N-(adamantan-1-ylmethyl)-2-{2-[(ethylsulfonyl)amino]eth-yl}imidazo[1,2-a]pyridine-5-carboxamide] | < 2
20 | NC1CCN(Cc2cn3c(C(=O)NCC45CC6CC(CC(C6)C4)C5)cccc3n2)CC1 [Compound 120, N-(adamantan-1-ylmethyl)-2-[(4-aminopiperidin-1-yl)methyl]imidazo[1,2-a]pyridine-5-carboxamide] | < 2
21 | CN(C(=O)c1cn2c(C(=O)NCC34CC5CC(CC(C5)C3)C4)cccc2n1)C1CCOC1 (centres unmarked) [Compound 90, 5-N-(adamantan-1-ylmethyl)--methyl-- (tetrahydrofuran-3-yl)imidazo[1,2-a]pyridine-2,5-dicarboxamide] | < 2
22 | O=C(Cc1cn2c(C(=O)NCC34CC5CC(CC(C5)C3)C4)cccc2n1)NCCO [Compound 26, N-(adamantan-1-ylmethyl)-2-{2-[(2-hydroxyethyl)amino]-2-oxoethyl}imidazo[1,2-a]pyridine-5-carboxamide] | < 2
23 | COCCN1CCN(C(=O)c2cn3c(C(=O)NCC45CC6CC(CC(C6)C4)C5)cccc3n2)CC1 [Compound 94, N-(adamantan-1-ylmethyl)-2-{[4-(2-methoxyethyl)piperazin-1-yl]carbonyl}imidazo[1,2-a]pyridine-5-carboxamide] | < 2

Same assay, conditions: fluorescence response of cells exposed to 80 μM 2′(3′)-O-(4-benzoyl-benzoyl)adenosine 5′-triphosphate; Example 4A; read-out: IC50

Row | Compound | IC50 [µM]
24 | O=C(NCC12CC3CC(CC(C3)C1)C2)c1cccc2nc(CN3CCCC3)cn12 [Compound 286, N-(adamantan-1-ylmethyl)-2-(pyrrolidin-1-ylmethyl)imidazo[1,2-a]pyridine-5-carboxamide] | < 2
25 | O=C(O)CCc1cn2c(C(=O)NCC34CC5CC(CC(C5)C3)C4)cccc2n1 [Compound 296, 3-{5-[(adamantan-1-ylmethyl)carbamoyl]imidazo[1,2-a]pyridin-2-yl}propanoic acid] | < 2
26 | COCC1CCCCN1C(=O)Cc1cn2c(C(=O)NCC(CC(C)C)c3ccccc3)cccc2n1 (centres unmarked) [Compound 241, 2-{2-[2-(methoxymethyl)piperidin-1-yl]-2-oxoethyl}-N-(4-methyl-2-phenylpentyl)imidazo [1,2-a]pyridine-5-carboxamide] | < 2
27 | O=C(CC12CC3CC(CC(C3)C1)C2)Nc1cccc2nc(C(=O)N3CCC(F)CC3)cn12 [Compound 387, 2-adamantan-1-yl-N-{2-[(4-fluoropiperidin-1-yl)carbonyl]imidazo[1,2-a]pyridin-5-yl}acetamide] | < 2
28 | CCOC(=O)CN(C)Cc1cn2c(C(=O)NCC34CC5CC(CC(C5)C3)C4)cccc2n1 [Compound 341, ethyl N-({5-[(adamantan-1-ylmethyl)carbamoyl]imidazo[1,2-a]pyridin-2-yl}methyl)-N-methylglycinate] | < 2
29 | CCN(CCCO)C(=O)c1cn2c(NC(=O)CC34CC5CC(CC(C5)C3)C4)cccc2n1 [Compound 417, 5-[(adamantan-1-ylacetyl)amino]-N-ethyl-N-(3-hydroxypropyl) imidazo [1,2-a]pyridine-2-carboxamide] | < 2
